US11479559B2, “Urea-substituted aromatic ring-linked dioxinoquinoline compounds, preparation method and uses thereof” (BEIJING SCITECH-MQ PHARMACEUTICALS LIMITED, priority 2018, dated 2022)
pIC50: −log10 of the molar value. Read-outs that look alike come from different tables or passages of the source.

Key:
RET tyrosine kinase = RET tyrosine kinase (Homo sapiens (Human), UniProt P07949); test: Assay of small molecular compounds for inhibiting the activity of RET kinase (LANCE TR-FRET)
Procedure: (§1) The assay is based on the LANCE TR-FRET technology of Perkin Elmer Inc., and the assay method is as follows:
(§2) 2.5 μL of the gradient-diluted compounds were taken with a transfer pipette to a 384-well plate.
Addition of enzyme: 5 μL of 2× RET kinase solution (concentration was 0.8 nM) was taken with a transfer pipette to the corresponding reaction well of the 384-well plate, mixed well and pre-reacted at room temperature for 30 minutes.
2.5 μL 4× Ultra ULight™-JAK-1 (Tyr1023) Peptide (concentration was 200 nM)/ATP (concentration was 40 μM) mixture was taken with a transfer pipette to the corresponding reaction well of the 384-well plate.
(§3) The final concentration of DMSO in the reaction system was 4%.
(§4) The mixture was mixed well and then centrifuged and reacted at room temperature in dark for 60 min.
(§5) The 384-well plate was placed into the Envision plate reader and the signal was detected using the appropriate program.

VEGFR2 tyrosine kinase = VEGFR2 tyrosine kinase (Homo sapiens (Human), UniProt P35968); test: Assay of small molecular compounds for inhibiting the activity of VEGFR-2 kinase (LANCE TR-FRET)
Sequence of VEGFR2 tyrosine kinase (P35968 20-1356): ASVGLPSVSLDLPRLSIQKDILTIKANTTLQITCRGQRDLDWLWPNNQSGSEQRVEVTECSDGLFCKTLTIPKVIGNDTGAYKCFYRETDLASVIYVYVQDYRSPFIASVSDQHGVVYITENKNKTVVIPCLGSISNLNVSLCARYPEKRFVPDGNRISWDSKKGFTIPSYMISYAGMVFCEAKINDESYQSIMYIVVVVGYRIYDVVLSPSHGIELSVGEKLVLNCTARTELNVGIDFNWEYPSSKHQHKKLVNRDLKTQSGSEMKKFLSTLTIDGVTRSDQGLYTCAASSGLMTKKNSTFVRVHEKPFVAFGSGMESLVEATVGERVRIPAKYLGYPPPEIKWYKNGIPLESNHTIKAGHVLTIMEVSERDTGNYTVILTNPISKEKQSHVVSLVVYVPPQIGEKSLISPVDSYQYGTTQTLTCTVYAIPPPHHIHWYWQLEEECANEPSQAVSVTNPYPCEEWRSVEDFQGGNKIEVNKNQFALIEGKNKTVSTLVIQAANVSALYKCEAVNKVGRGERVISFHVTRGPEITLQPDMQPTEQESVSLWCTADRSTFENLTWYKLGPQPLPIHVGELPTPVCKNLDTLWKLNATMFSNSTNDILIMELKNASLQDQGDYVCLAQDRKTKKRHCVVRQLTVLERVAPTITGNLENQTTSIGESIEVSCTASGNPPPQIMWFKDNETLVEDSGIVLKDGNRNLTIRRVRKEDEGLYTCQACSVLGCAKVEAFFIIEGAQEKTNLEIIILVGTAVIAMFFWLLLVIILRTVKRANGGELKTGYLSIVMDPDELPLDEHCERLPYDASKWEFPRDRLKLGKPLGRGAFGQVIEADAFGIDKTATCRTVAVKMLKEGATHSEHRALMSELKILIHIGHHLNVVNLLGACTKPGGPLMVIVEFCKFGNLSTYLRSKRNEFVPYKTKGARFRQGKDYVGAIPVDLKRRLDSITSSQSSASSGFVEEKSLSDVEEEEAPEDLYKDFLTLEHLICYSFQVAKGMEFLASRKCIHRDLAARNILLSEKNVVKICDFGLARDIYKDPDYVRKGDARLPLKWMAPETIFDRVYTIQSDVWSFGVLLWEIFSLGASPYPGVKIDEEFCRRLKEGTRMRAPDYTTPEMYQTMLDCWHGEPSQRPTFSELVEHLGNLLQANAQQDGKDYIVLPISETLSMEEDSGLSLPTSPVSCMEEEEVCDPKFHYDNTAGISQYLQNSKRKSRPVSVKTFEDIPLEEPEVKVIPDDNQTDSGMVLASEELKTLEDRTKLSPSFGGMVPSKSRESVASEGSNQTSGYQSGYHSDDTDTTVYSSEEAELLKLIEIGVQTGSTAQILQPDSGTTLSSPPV
Procedure: as §1, §2
Addition of enzyme: 5 μL of 2× VEGFR2 kinase solution (concentration was 0.5 nM) was taken with a transfer pipette to the corresponding reaction well of the 384-well plate, mixed well and pre-reacted at room temperature for 30 minutes.
2.5 μL 4× Ultra ULight™-JAK-1 (Tyr1023) Peptide (concentration was 200 nM)/ATP (concentration was 40 μMM) mixture was taken with a transfer pipette to the corresponding reaction well of the 384-well plate.
Negative control: 2.5 μL/well 4× substrate/ATP mixture and 7.5 μL 1× Kinase Assay Buffer were added to the wells of the 384-well plate.
as §3, §4, §5

Sequence of RET tyrosine kinase (P07949 29-1114): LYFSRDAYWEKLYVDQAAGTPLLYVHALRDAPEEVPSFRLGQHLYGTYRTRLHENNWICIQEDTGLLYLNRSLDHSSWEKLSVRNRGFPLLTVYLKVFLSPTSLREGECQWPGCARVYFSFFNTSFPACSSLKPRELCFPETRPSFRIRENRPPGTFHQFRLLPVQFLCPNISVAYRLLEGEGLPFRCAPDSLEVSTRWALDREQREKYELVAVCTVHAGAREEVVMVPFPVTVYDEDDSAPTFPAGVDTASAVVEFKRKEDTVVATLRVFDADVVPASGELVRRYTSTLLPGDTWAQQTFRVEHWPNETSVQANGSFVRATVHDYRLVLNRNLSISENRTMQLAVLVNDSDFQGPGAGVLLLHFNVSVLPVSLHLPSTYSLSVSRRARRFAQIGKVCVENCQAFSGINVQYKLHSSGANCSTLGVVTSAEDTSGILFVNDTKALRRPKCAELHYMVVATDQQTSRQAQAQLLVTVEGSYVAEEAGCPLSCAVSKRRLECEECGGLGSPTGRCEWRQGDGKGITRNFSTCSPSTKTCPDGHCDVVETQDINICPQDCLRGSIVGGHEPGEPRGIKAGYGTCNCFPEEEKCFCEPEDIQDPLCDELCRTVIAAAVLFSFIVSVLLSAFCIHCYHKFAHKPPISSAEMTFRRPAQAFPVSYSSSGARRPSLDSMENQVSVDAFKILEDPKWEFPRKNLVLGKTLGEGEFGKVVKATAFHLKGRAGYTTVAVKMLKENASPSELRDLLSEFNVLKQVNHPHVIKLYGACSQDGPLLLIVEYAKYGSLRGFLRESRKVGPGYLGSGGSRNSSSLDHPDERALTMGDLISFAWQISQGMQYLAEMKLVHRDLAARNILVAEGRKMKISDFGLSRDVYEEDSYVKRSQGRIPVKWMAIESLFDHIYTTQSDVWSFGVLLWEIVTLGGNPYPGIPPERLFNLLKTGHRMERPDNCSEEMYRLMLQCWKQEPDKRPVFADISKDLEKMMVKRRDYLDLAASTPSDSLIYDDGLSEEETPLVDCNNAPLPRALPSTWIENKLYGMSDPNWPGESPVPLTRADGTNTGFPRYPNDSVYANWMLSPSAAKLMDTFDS

| pIC50 (RET tyrosine kinase; read-out: RET IC50) | pIC50 (VEGFR2 tyrosine kinase; read-out: VEGFR-2 IC50) | pIC50 (RET tyrosine kinase) | pIC50 (VEGFR2 tyrosine kinase) | SMILES |
| --- | --- | --- | --- | --- |
| > 7.30 | > 7.30 | – | – | COCCOc1cc2nccc(Oc3ccc(NC(=O)NC4CC4)c(F)c3)c2c2c1OCCO2 [Example 91, 1-cyclopropyl-3-(2-fluoro-4-((5-(2-methoxyethoxy)-2,3-dihydro-[1,4]dioxino[2,3-f]quinolin-10-yl)oxy)phenyl)urea] |
| > 7.30 | > 7.30 | – | – | N#CCOc1cc2nccc(Oc3ccc(NC(=O)NC4CC4)c(Cl)c3)c2c2c1OCCO2 [Example 47, 1-(2-chloro-4-((5-(cyanomethoxy)-2,3-dihydro-[1,4]dioxino[2,3-f]quinolin-10-yl)oxy)phenyl)-3-cyclopropylurea] |
| > 7.30 | > 7.30 | – | – | O=C(Nc1ccc(Oc2ccnc3cc(OCCCN4CCCC4)c4c(c23)OCCO4)cc1)Nc1ccc(Cl)c(C(F)(F)F)c1 [Example 18, 1-(4-chloro-3-(trifluoromethyl)phenyl)-3-(4-((5-(3-(pyrrolidin-1-yl)propoxy)-2,3-dihydro-[1,4]dioxino[2,3-f]quinolin-10-yl)oxy)phenyl)urea] |
| – | – | > 7.30 | > 7.30 | CCCNC(=O)Nc1ccc(Oc2ccnc3cc(OCCCN4CCOCC4)c4c(c23)OCCO4)cc1Cl [Example 87, 1-(2-chloro-4-((5-(3-morpholinopropoxy)-2,3-dihydro-[1,4]dioxino[2,3-f]quinolin-10-yl)oxy)phenyl)-3-prop ylurea] |
| – | – | > 7.30 | > 7.30 | CNC(=O)Nc1ccc(Oc2ccnc3cc(OCCCN4CCOCC4)c4c(c23)OCCO4)cc1Cl [Example 85, 1-(2-chloro-4-((5-(3-morpholinopropoxy)-2,3-dihydro-[1,4]dioxino[2,3-f]quinolin-10-yl)oxy)phenyl)-3-methylurea] |
| > 7.30 | > 7.30 | – | – | CC(C)NC(=O)Nc1ccc(Oc2ccnc3cc(OCCCN4CCOCC4)c4c(c23)OCCO4)cc1Cl [Example 88, 1-(2-chloro-4-((5-(3-morpholinopropoxy)-2,3-dihydro-[1,4]dioxino[2,3-f]quinolin-10-yl)oxy)phenyl)-3-isopropylurea] |
| > 7.30 | > 7.30 | – | – | O=C(Nc1ccc(Oc2ccnc3cc(OCCCO)c4c(c23)OCCO4)cc1Cl)NC1CC1 [Example 50, 1-(2-chloro-4-((5-(3-hydroxypropoxy)-2,3-dihydro-[1,4]dioxino[2,3-f]quinolin-10-yl)oxy)phenyl)-3-cyclopropylurea] |
| > 7.30 | > 7.30 | – | – | O=C(Nc1ccc(Oc2ccnc3cc(OC4CCOC4)c4c(c23)OCCO4)cc1Cl)NC1CC1 (stereo not shown) [Example 66, 1-(2-chloro-4-((5-((tetrahydrofuran-3-yl)oxy)-2,3-dihydro-[1,4]dioxino[2,3-f]quinolin-10-yl)oxy)phenyl)-3-cyclopropylurea] |
| > 7.30 | > 7.30 | – | – | COCCCOc1cc2nccc(Oc3ccc(NC(=O)NC4CCC4)c(Cl)c3)c2c2c1OCCO2 [Example 72, 1-(2-chloro-4-((5-(3-methoxypropoxy)-2,3-dihydro-[1,4]dioxino[2,3-f]quinolin-10-yl)oxy)phenyl)-3-cyclobutylurea] |
| > 7.30 | > 7.30 | – | – | CN(C)CCCOc1cc2nccc(Oc3ccc(NC(=O)NC4CC4)c(Cl)c3)c2c2c1OCCO2 [Example 52, 1-(2-chloro-4-((5-(3-(dimethylamino)propoxy)-2,3-dihydro-[1,4]dioxino[2,3-f]quinolin-10-yl)oxy)phenyl)-3-cyclopropylurea] |
| > 7.30 | – | – | 6.30 to 7.30 | CN(C)CCCCCCOc1cc2nccc(Oc3ccc(NC(=O)Nc4ccc(Cl)c(C(F)(F)F)c4)cc3)c2c2c1OCCO2 [Example 30, 1-(4-chloro-3-(trifluoromethyl)phenyl)-3-(4-((5-((6-(dimethylamino)hexyl)oxy)-2,3-dihydro-[1,4]dioxino[2,3-f]quinolin-10-yl)oxy)phenyl)urea] |
| > 7.30 | – | – | 6.30 to 7.30 | COCCN(C)CCCOc1cc2nccc(Oc3ccc(NC(=O)Nc4ccc(Cl)c(C(F)(F)F)c4)cc3)c2c2c1OCCO2 [Example 27, 1-(4-chloro-3-(trifluoromethyl)phenyl)-3-(4-((5-(3-((2-methoxyethyl)(methyl)amino)propoxy)-2,3-dihydro-[1,4]dioxino[2,3-f]quinolin-10-yl)oxy)phenyl)urea] |
| > 7.30 | > 7.30 | – | – | O=C(Nc1ccc(Oc2ccnc3cc(OCCCN4CCOCC4)c4c(c23)OCCO4)cc1Cl)NC1CC1 [Example 55, 1-(2-chloro-4-((5-(3-morpholinopropoxy)-2,3-dihydro-[1,4]dioxino[2,3-f]quinolin-10-yl)oxy)phenyl)-3-cyclopropylurea] |
| > 7.30 | > 7.30 | – | – | O=C(Nc1ccc(Oc2ccnc3cc(OCCO)c4c(c23)OCCO4)cc1)Nc1ccc(Cl)c(C(F)(F)F)c1 [Example 14, 1-(4-chloro-3-(trifluoromethyl)phenyl)-3-(4-((5-(2-hydroxyethoxy)-2,3-dihydro-[1,4]dioxino[2,3-f]quinolin-10-yl)oxy)phenyl)urea] |
| > 7.30 | > 7.30 | – | – | N#CCCCOc1cc2nccc(Oc3ccc(NC(=O)NC4CC4)c(Cl)c3)c2c2c1OCCO2 [Example 93, 1-(2-chloro-4-((5-(3-cyanopropoxy)-2,3-dihydro-[1,4]dioxino[2,3-f]quinolin-10-yl)oxy)phenyl)-3-cyclopropylurea] |
| > 7.30 | > 7.30 | – | – | COCCCOc1cc2nccc(Oc3ccc(NC(=O)NC4CC4)c(Cl)c3)c2c2c1OCCO2 [Example 51, 1-(2-chloro-4-((5-(3-methoxypropoxy)-2,3-dihydro-[1,4]dioxino[2,3-f]quinolin-10-yl)oxy)phenyl)-3-cyclopropylurea] |
| – | – | > 7.30 | > 7.30 | COc1cc2nccc(Oc3ccc(NC(=O)NC4CC4)c(Cl)c3)c2c2c1OCCO2 [Example 7, 1-(2-chloro-4-((5-methoxy-2,3-dihydro-[1,4]dioxino[2,3-f]quinolin-10-yl)oxy)phenyl)-3-cyclopropylurea] |
| > 7.30 | > 7.30 | – | – | CC1(C)CCN(CCCOc2cc3nccc(Oc4ccc(NC(=O)NC5CC5)c(Cl)c4)c3c3c2OCCO3)CC1 [Example 59, 1-(2-chloro-4-((5-(3-(4,4-dimethylpiperidin-1-yl)propoxy)-2,3-dihydro-[1,4]dioxino[2,3-f]quinolin-10-yl)oxy)phenyl)-3-cyclopropylurea] |
| > 7.30 | > 7.30 | – | – | CNC(=O)Nc1ccc(Oc2ccnc3cc(OC)c4c(c23)OCCO4)cc1Cl [Example 79, 1-(2-chloro-4-((5-methoxy-2,3-dihydro-[1,4]dioxino[2,3-f]quinolin-10-yl)oxy)phenyl)-3-methylurea] |
| > 7.30 | > 7.30 | – | – | O=C(Nc1ccc(F)cc1)Nc1ccc(Oc2ccnc3cc(OCCCN4CCOCC4)c4c(c23)OCCO4)cc1 [Example 77, 1-(4-fluorophenyl)-3-(4-((5-(3-morpholinopropoxy)-2,3-dihydro-[1,4]dioxino[2,3-f]quinolin-10-yl)oxy)phenyl)urea] |
| > 7.30 | – | – | – | COCCCCCCOc1cc2nccc(Oc3ccc(NC(=O)Nc4ccc(Cl)c(C(F)(F)F)c4)cc3)c2c2c1OCCO2 [Example 29, 1-(4-chloro-3-(trifluoromethyl)phenyl)-3-(4-((5-((6-methoxyhexyl)oxy)-2,3-dihydro-[1,4]dioxino[2,3-f]quinolin-10-yl)oxy)phenyl)urea] |
| > 7.30 | – | – | – | COc1cc2nccc(Oc3ccc(NC(=O)Nc4ccc(Cl)c(C(F)(F)F)c4)c(F)c3)c2c2c1OCCO2 [Example 6, 1-(4-chloro-3-(trifluoromethyl)phenyl)-3-(2-fluoro-4-((5-methoxy-2,3-dihydro-[1,4]dioxino[2,3-f]quinolin-10-yl)oxy)phenyl)urea] |
| – | – | 6.30 to 7.30 | – | COCCCOc1cc2nccc(Oc3ccc(NC(=O)NC4CCCC4)c(Cl)c3)c2c2c1OCCO2 [Example 73, 1-(2-chloro-4-((5-(3-methoxypropoxy)-2,3-dihydro-[1,4]dioxino[2,3-f]quinolin-10-yl)oxy)phenyl)-3-cyclopentylurea] |
| – | – | 6.30 to 7.30 | – | N#CCOc1cc2nccc(Oc3ccc(NC(=O)Nc4ccc(Cl)c(C(F)(F)F)c4)cc3)c2c2c1OCCO2 [Example 13, 1-(4-chloro-3-(trifluoromethyl)phenyl)-3-(4-((5-(cyanomethoxy)-2,3-dihydro-[1,4]dioxino[2,3-f]quinolin-10-yl)oxy)phenyl)urea] |
| – | > 7.30 | – | – | O=C(Nc1ccc(Oc2ccnc3cc(OCCCN4CCCCC4)c4c(c23)OCCO4)cc1)Nc1ccc(Cl)c(C(F)(F)F)c1 [Example 19, 1-(4-chloro-3-(trifluoromethyl)phenyl)-3-(4-((5-(3-(piperidin-1-yl)propoxy)-2,3-dihydro-[1,4]dioxino[2,3-f]quinolin-10-yl)oxy)phenyl)urea] |
| – | – | 6.30 to 7.30 | – | O=C(Nc1ccc(Oc2ccnc3cc(OCCCN4CCS(=O)(=O)CC4)c4c(c23)OCCO4)cc1)Nc1ccc(Cl)c(C(F)(F)F)c1 [Example 23, 1-(4-chloro-3-(trifluoromethyl)phenyl)-3-(4-((5-(3-(1,1-dioxothiomorpholino)propoxy)-2,3-dihydro-[1,4]dioxino[2,3-f]quinolin-10-yl)oxy)phenyl)urea] |
| – | – | 6.30 to 7.30 | – | O=C(Nc1ccc(Oc2ccnc3cc(OC4COC4)c4c(c23)OCCO4)cc1)Nc1ccc(Cl)c(C(F)(F)F)c1 [Example 31] |
| > 7.30 | – | – | – | CC1(C)CCN(CCCOc2cc3nccc(Oc4ccc(NC(=O)Nc5ccc(Cl)c(C(F)(F)F)c5)cc4)c3c3c2OCCO3)CC1 [Example 24, 1-(4-chloro-3-(trifluoromethyl)phenyl)-3-(4-((5-(3-(4,4-dimethylpiperidin-1-yl)propoxy)-2,3-dihydro-[1,4]dioxino[2,3-f]quinolin-10-yl)oxy)phenyl)urea] |
| – | – | > 7.30 | – | COCCOc1cc2nccc(Oc3ccc(NC(=O)Nc4ccc(Cl)c(C(F)(F)F)c4)c(F)c3)c2c2c1OCCO2 [Example 37, 1-(4-chloro-3-(trifluoromethyl)phenyl)-3-(2-fluoro-4-((5-(2-methoxyethoxy)-2,3-dihydro-[1,4]dioxino[2,3-f]quinolin-10-yl)oxy)phenyl)urea] |
